Laboratory results published in paper PMC12848680, “Microbial Cross-Talk: Unlocking the Cytochalasin Diversity from a Termite-Associated Xylaria” (JACS Au, 2025).
Converted amounts (≈) assume the structure as drawn. Where two headings read alike, the source gives them in different places.

Key:
[1] = test system: Staphylococcus aureus Newman; experiment: Antibacterial activity against S. aureus Newman; type: cell-based; details: Table S22
[2] = test system: CHO-K1 (chinese hamster ovary cells); experiment: Cytotoxicity assay (MTT, 5 d) on CHO-K1; type: cell-based; details: Cricetulus griseus, CHO-K1, 120 h
Procedure: (§1) Cytotoxicity assay: A549 (human lung carcinoma cell line; ACC 107) and CHO-K1 (chinese hamster ovary cells; ACC 110) were obtained from the German Collection of Microorganisms and Cell Cultures (DSMZ) and cultured under the conditions recommended by the depositor. Cells were propagated in Dulbeccos’s Modified Eagle’s Medium (DMEM) and Ham’s F12 medium, respectively, supplemented with 10% fetal bovine serum (FBS), and seeded at 6×10^3 cells per well of 96-well plates in 120 μL of complete medium. After 2 h of equilibration (37 °C, 5% CO2), the cells were treated with a serial dilution of cytochalasins in 60 µL growth medium. Cytochalasins, doxorubicin as reference, as well as the solvent control were tested as duplicates in two independent experiments. After 5 d of incubation (37 °C, 5% CO2), a total of 20 μL of 5 mg/ml MTT (thiazolyl blue tetrazolium bromide) in phosphate -buffered saline (PBS) were added to each well […]
(§2) and the cells were further incubated for 2 h at 37 °C before the supernatant was discarded.
(§3) Subsequently, the cells were washed with 100 μL of PBS and treated with 100 μl of 2-propanol/10 N HCl (250:1) to dissolve formazan granules. Cell viability was measured as percentage relative to the respective solvent control by measuring the absorbance at 570 nm using a microplate reader (Tecan Infinite M200Pro). GraphPad Prism (version 10.0.3, GraphPad, Boston, MA, USA) was used for sigmoidal curve fitting to determine the IC50 values.

[3] = in vitro; type: in vitro ADME, mouse; details: for microsomal CLint: C57BL/6, mouse, microsomes; for half-life: mouse, read-out: Mouse liver microsome t1/2
Procedure: Assays in liver microsomes: For metabolic stability, the compound (1 μM) was incubated with 0.5 mg/mL pooled mouse (C57BL/6) microsomes (Xenotech, Kansas City, USA), 2 mM NADPH, 10 mM MgCl2 at 37 °C for 120 min on a microplate shaker. The metabolic stability of testosterone, verapamil and ketoconazole were determined in parallel to confirm the enzymatic activity of mouse/rat liver microsomes. The incubation was stopped after defined time points by precipitation of aliquots of the incubation mixture with 2 volumes of cold internal standard solution (15 nM diphenhydramine in 10% methanol/acetonitrile). Samples were stored on ice until the end of the incubation and precipitated protein was removed by centrifugation (15 min, 4 °C, and 4,000 g). Concentration of the remaining test compound at the different time points was analyzed by HPLC-MS/MS (Vanquish Flex coupled to a TSQ Altis Plus, Thermo Fisher, Dreieich, Germany) and used to determine half-life (t1/2). […]

[4] = test system: E. coli ΔacrB (JW0451-2); experiment: Antibacterial activity against E. coli ΔacrB; type: cell-based; details: Escherichia coli, read-out: E. coli ΔacrB (JW0451-2) MIC
[5] = in vitro; type: in vitro ADME, mouse; details: for half-life at 1 μM: 1 μM compound, pooled CD-1 mouse plasma, read-out: Mouse plasma t1/2
Procedure: Plasma stability assays: To determine stability in plasma, the compound (1 μM) was incubated with pooled CD-1 mouse plasma (Neo Biotech, Nanterre, France). Samples were taken by mixing aliquots with 4 volumes of cold internal standard solution (12.5 nM diphenhydramine in 10% methanol/acetonitrile). The plasma stability of procain, propantheline and diltiazem were determined in parallel to confirm the enzymatic activity. Samples were stored on ice until the end of the incubation and precipitated protein was removed by centrifugation (15 min, 4 °C, 4,000 g, two centrifugation steps). Concentration of the remaining test compound at the different time points was analyzed by HPLC-MS/MS (Vanquish Flex coupled to a TSQ Altis Plus, Thermo Fisher, Dreieich, Germany). […]

[6] = test system: A549 (human lung carcinoma cell line); experiment: Cytotoxicity assay (MTT, 5 d) on A549; type: cell-based; details: for IC50: Homo sapiens, A549, 120 h, MTT, 5 d incubation; for Cytotoxic activity against A549 (in words): positive control doxorubicin
Procedure: as §1, §2, §3

[7] = Table S22, intrinsic clearance calculated from microsomal metabolism data
[8] = Table S22, 1 μM compound, 0.5 mg/mL pooled C57BL/6 microsomes
[9] = Table 1, intrinsic clearance from microsomal metabolism data
[10] = Table 1, 1 μM compound, 0.5 mg/mL pooled C57BL/6 microsomes, 120 min

| Compound | MIC [1] | IC50 ([2]; Table S22, 5 d incubation) | microsomal CLint [3, 7] | half-life [3, 8] | MIC [4] | half-life at 1 μM ([5]; Table S22) | IC50 ([6]; Table S22) | IC50 ([2]; Table 1, 5 d incubation) | microsomal CLint [3, 9] | half-life [3, 10] | half-life at 1 μM ([5]; Table 1) | Compound remaining in mouse plasma ([5]; Table 1, at 240 min) | Compound remaining in mouse plasma ([5]; Table S22, at 4 h) | IC50 ([6]; Table 1) | Cytotoxic activity against A549 (in words) [6] | Mouse liver microsome t1/2 [3, 8] |
| --- | --- | --- | --- | --- | --- | --- | --- | --- | --- | --- | --- | --- | --- | --- | --- | --- |
| CC(=O)OC1C2OC2C(C)(O)C(=O)C(C)CC2OC2C2C3OC3(C)C(C)C3C(Cc4ccccc4)NC(=O)C132 (centres unmarked) [Compound 8, 19,20-epoxycytochalasin R] | > 64 mg/L | 17.3 ± 8.94 mg/L (≈ 32 µM) | 37 ± 4 µL/min/mg | 38 ± 4 min | > 64 mg/L | > 240 min | > 37 mg/L | – | – | – | – | – | – | – | – | – |
| C#CCCC1(CCC(=O)OC2C(=C)C(C)C3C(Cc4ccccc4)NC(=O)C34C2C=CCC(C)C(=O)C(C)(O)C2OC2C4OC(C)=O)N=N1 (centres unmarked) [Compound 26, 7-diazirin-19,20-epoxycytochalasin D] | > 64 mg/L | 7.02 ± 1.16 mg/L (≈ 10.4 µM) | 1020 ± 120 µL/min/mg | 1.4 ± 0.1 min | > 64 mg/L | > 240 min | 10.3 mg/L (≈ 15.3 µM) | – | – | – | – | – | – | – | – | – |
| CC1=C(C)C2C(Cc3cccc(Cl)c3)NC(=O)C23C(O)C2OC2C(C)(O)C(=O)C(C)CC=CC3C1O (centres unmarked) [Compound 12, m-chloro-deacetyl-19,20-epoxycytochalasin C] | > 64 mg/L | 2.02 ± 1.2 mg/L (≈ 3.91 µM) | 39 ± 12 µL/min/mg | 36 ± 10 min | > 64 mg/L | > 240 min | > 37 mg/L | – | – | – | – | – | – | – | – | – |
| CC(=O)OC1C2OC2C(C)(O)C(=O)C(C)CC=CC2C3OC3(C)C(C)C3C(Cc4ccccc4)N(C(C)=O)C(=O)C213 (centres unmarked) [Compound 24, N-acetyl-19,20-epoxycytochalasin Q] | > 64 mg/L | 3.06 ± 0.5 mg/L (≈ 5.41 µM) | 558 ± 58 µL/min/mg | 2.5 ± 0.3 min | > 64 mg/L | > 240 min | 0.72 ± 0.12 mg/L (≈ 1.27 µM) | – | – | – | – | – | – | – | – | – |
| CC(=O)O[C@@H]1/C=C/[C@@](C)(O)C(=O)[C@@H](C)C/C=C/[C@H]2[C@H](O)C(C)=C(C)[C@H]3[C@H](Cc4ccccc4)NC(=O)[C@@]123 [Compound 2, cytochalasin C] | > 64 mg/L | 1.48 ± 1.38 mg/L (≈ 2.92 µM) | 88 ± 7 µL/min/mg | 15.8 ± 1.2 min | > 64 mg/L | > 240 min | 3.34 ± 0.92 mg/L (≈ 6.58 µM) | – | – | – | – | – | – | – | – | – |
| CC(=O)OC1C2OC2C(C)C(=O)C(C)CC=CC2C(O)C(C)=C(C)C3C(Cc4ccccc4)NC(=O)C213 (centres unmarked) [Compound 5, 18-desoxy-19,20-epoxycytochalasin C] | > 64 mg/L | – | – | – | > 64 mg/L | – | – | 9.88 ± 7.69 mg/L (≈ 19.5 µM) | 132 ± 38 µL/min/mg | 11 ± 3 min | > 240 min | 74 ± 5% | >240 (74 ± 5% at 4 h) | 0.87 ± 1.38 mg/L (≈ 1.71 µM) | comparable to the positive control | – |
| CC(=O)OC1C2OC2C(C)(O)C(=O)C(C)CC=CC2C(O)C(C)=C(C)C3C(Cc4cccc(Cl)c4)NC(=O)C213 (centres unmarked) [Compound 11, m-chloro-19,20-epoxycytochalasin C] | > 64 mg/L | – | – | 26.4 ± 1.2 min | > 64 mg/L | – | – | 0.67 ± 0.53 mg/L (≈ 1.2 µM) | 52.7 ± 2.5 µL/min/mg | – | > 240 min | – | – | 0.04 mg/L (≈ 0.0717 µM) | lower nanomolar activities | – |
| CC(=O)OC1C2OC2C(C)(O)C(=O)C(C)CC=CC2C(O)C(C)=C(C)C3C(CC(=O)O)NC(=O)C213 (centres unmarked) [Compound 22, xylachalasin A] | > 64 mg/L | – | < 11.6 µL/min/mg | – | > 64 mg/L | – | – | > 37 mg/L | – | > 120 min | > 240 min | – | – | > 37 mg/L | – | >120 min |
| CC1CC=CC2C3OC3(C)C(C)C3C(Cc4ccccc4)NC(=O)C23C(O)C2OC2C(C)(O)C1=O (centres unmarked) [Compound 7, deacetyl-19,20-epoxycytochalasin Q] | > 64 mg/L | 3.78 ± 0.3 mg/L (≈ 7.85 µM) | 14 ± 3 µL/min/mg | 102 ± 24 min | > 64 mg/L | > 240 min | 2.56 ± 0.94 mg/L (≈ 5.32 µM) | – | – | – | – | – | – | – | – | – |
